Data taken from patent US8501695B2, “Tissue kallikrein for the treatment of diseases associated with amyloid protein” (DiaMedica, Inc., priority 2007, dated 2013).

Tests used:
[1] = tested on: rat mixed cortical cultures (RMCC); test: Aβ1-42 toxicity in rat mixed cortical cultures, LDH measurement; assay type: cell-based; conditions: for LDH release following Aβ1-42 insult: study arm A, B or C
Procedure: (§1) Whether pre-treatment with tissue kallikrein protects rat mixed cortical cultures against exposure to human amyloid beta peptide (Aβ1-42) was investigated. Cell death was analyzed by LDH-release, an indication of necrosis, and cell viability was also analyzed by neuronal cell count. First (Study Arm A), tissue kallikrein was added to the cells only prior to the Aβ1-42 insult (at −24 h and at −30 min). Whereas in the second part (Study Arm B), tissue kallikrein was added to the cells prior to (−30 min) and also at +24 h after the Aβ1-42 insult. At the +24 h time point, cell culture media were not changed (tissue kallikrein or corresponding amount of vehicle was added to the wells), whereas at −24 h and −30 min time point cell culture media were changed.
(§2) […] Cell Culture. Mixed cortical cultures were prepared from E18 Wistar rat embryos (National Animal Center, Kuopio, Finland). The cortices were dissected out, and the tissue cut to small pieces. The cells were separated by 15-min incubation with DNase and papain. The cells were collected by centrifugation (1500 rpm, 5 min). The tissue was triturated with a pipette and the cells were plated on poly-L-lysine-coated 48-well plates, 300,000 cells/cm^2, in MEM (2 g/L glucose) supplemented with 2 mM glutamine, 0.1 μg/ml gentamicin, 10% heat-inactivated fetal bovine serum (FBS-HI) and 10% heat-inactivated horse serum (HS-HI). After 3-4 h, the media were changed to MEM (2 g/L glucose) supplemented with 2 mM glutamine, 0.1 μg/ml gentamicin, 5% HS-HI. After three days in vitro, media containing MEM (2 g/L glucose) supplemented with glutamine, gentamicin, and 5% of both sera were changed to the cells. On day 6 in vitro, the unwanted cell division was inhibited by adding cytosine arabinoside (10 μM final concentration) for 24 h. The cultures were refed with MEM (2 g/L glucose) supplemented with glutamine, gentamicin, and 5% HS-HI before experiments.
(§3) Aβ1-42 Exposure. Tissue kallikrein (SEQ ID NO:1) was dissolved and further diluted in MEM supplemented with glucose, glutamine, gentamicin, and 5% HS-HI. As a control for total neuronal death, 300 μM N-methyl-D-aspartic acid (NMDA) for 48 h was used, and 10 μM Aβ1-42 for 48 h was used to induce approximately 30-50% cell death. Wells treated with media only served as 0-control. Tissue kallikrein or vehicle was pipetted to the cells −24 h and −30 min before adding 10 μM Aβ1-42 (final concentration). Tissue kallikrein or vehicle was again pipetted to the cells at +24 h after exposure.
LDH Measurement. After 48 h, the culture media of all wells were collected, and possible cell debris was removed by centrifugation (13,000 rpm for 3 min). A 100 μl aliquot was pipetted into a microtiter plate as duplicates, and equal amount of LDH reagent was pipetted to the wells. The absorbance at 340 nm was measured immediately using a 3 min kinetic measurement protocol in Multiskan ELISA reader (Labsystems, Finland). The change in absorbance/min was determined, which was directly proportional to the released LDH. The remaining supernatant (50 μl) was snap-frozen in dry ice for storage.
(§4) Data Analysis. The number of wells per compound concentration used was 6 (n=6). Five concentrations of Tissue kallikrein were studied (0.001, 0.01, 0.1, 1, 10 μg/ml) in both study arms. Statistical analysis was performed using StatsDirect statistical software. The values were analyzed by one-way ANOVA followed by Dunnet's test (comparison to the vehicle-treated group). Results are presented as mean±standard deviation (SD) and differences are considered to be statistically significant at the P<0.05 level.

[2] = tested on: rat mixed cortical cultures (RMCC); test: Aβ1-42 toxicity in rat mixed cortical cultures, neuronal survival (NeuN cell count); assay type: cell-based; conditions: 1 nM, 5 nM, 10 nM, 50 nM and 100 nM; study arm A, B or C
Procedure: as §1, §2, §3
Immunocytochemistry for Neuronal Survival. For neuronal counts, the cultures were fixed with 4% paraformaldehyde in 0.01 M PBS for 30 min and washed twice with PBS. The fixed cells were first permeabilized, and non-specific binding blocked by 30 min incubation with blocking buffer containing 1% bovine serum albumin and 0.3% Triton® X-100 in PBS. Anti-neuronal nuclei antibody (anti-NeuN, dilution 1:500, Chemicon, Temecula, Calif.) was used as the primary antibody. The cells were incubated with the primary antibody for 48 h, followed by incubation with a biotinylated secondary antibody (1:200, Vector Labs) for 2 h, and the avidin-biotin-peroxidase complex (ABC-reagent, 1:200, Vector ABC Elite Kit, Vector Labs) for 2 h. The positive cells were visualized using Ni-enhanced DAB as a substrate (DAB Substrate kit, Vector Labs). The NeuN immunopositive neurons were counted using a light microscope. Altogether, 2 fields of each well were counted. The results are shown as percent viable neurons.
as §4, with “Five concentrations of Tissue kallikrein were studied (0.001, 0.01, 0.1, 1, 10 μg/ml) in both study arms.” left out

lysyl-bradykinin [kallidin, reference compound]
LDH release following Aβ1-42 insult ([1]; 1 nM, 5 nM, 10 nM, 50 nM and 100 nM): did not alter LDH release
LDH release following Aβ1-42 insult ([1]; 1 μM and 10 μM): did alter LDH release
cell death following Aβ1-42 insult (LDH) ([1]; 100 μM, compared to Aβ1-42 insult alone): significantly potentated cell death
cell counts (survival) following Aβ1-42 insult [2]: did not affect cell counts
